Data reported in the supplement of paper PMC7840683.
± gives the standard deviation of the averaged measurements.

Test system: HepaRG
Assay: LDH release cytotoxicity, % of total lysis control; higher = more cytotoxic
Details: 48 h
In short: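 Percent cytotoxicity was scaled between on-plate vehicle and total lysis controls, then averaged over duplicate wells. The cells were single-lot HepaRG on collagen I-coated 96-well plates, exposed for 48 h to eight-point half-log test chemical series topping at 100 µM in serum-free induction medium with 0.5% DMSO. Total lysis wells got 0.1% Triton X, and LDH in 50 µL spent medium was read as resorufin fluorescence (CytoTox-ONE, Tecan Safire).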

CCOP(=O)(OCC)Oc1nc(Cl)c(Cl)cc1Cl [Chlorpyrifos oxon]
Details | LDH release cytotoxicity [%]
0.03162 µM | -1.8 ± 0.21
0.1 µM | -1.33 ± 0.45
0.3162278 µM | -1.43 ± 0.73
1 µM | -1.55 ± 0.93
3.16228 µM | -0.451 ± 0.67
10 µM | 0.221 ± 0.3
31.6228 µM | 0.828 ± 0.99
100 µM | 2.9 ± 1.2

OC(c1ccc(Cl)cc1)(c1cncnc1)c1ccccc1Cl (stereo not given) [Fenarimol]
Details | LDH release cytotoxicity [%]
0.031623 µM | -1.68 ± 0.087
0.1 µM | -0.827 ± 2.8
0.316228 µM | -0.805 ± 1.8
1 µM | -2.32 ± 0.2
3.16228 µM | -0.581 ± 1.4
10 µM | 0.969 ± 1.6
31.6228 µM | 2.21 ± 1.1
100 µM | 15.4 ± 0.42

CC1=C(C)S(=O)(=O)CCS1(=O)=O [Dimethipin]
Details | LDH release cytotoxicity [%]
0.03162 µM | -2.35 ± 1
0.1 µM | -2.52 ± 0.16
0.3162278 µM | -2.59 ± 0.038
1 µM | -3.12 ± 0.25
3.16228 µM | -2.6 ± 0.79
10 µM | -2.6 ± 0.88
31.6228 µM | -2.51 ± 1.3
100 µM | -1.52 ± 0.84

CC(C)N(C(=O)COc1nnc(C(F)(F)F)s1)c1ccc(F)cc1 [Flufenacet]
Details | LDH release cytotoxicity [%]
0.03162 µM | -2.32 ± 1.1
0.1 µM | -2.03 ± 0.074
0.3162278 µM | -2.3 ± 0.27
1 µM | -2.01 ± 0.82
3.16228 µM | -2.29 ± 0.33
10 µM | -1.38 ± 0.041
31.6228 µM | 0.458 ± 1.1
100 µM | 1.71 ± 0.18

Nc1ccc(Cl)cc1N [4-Chloro-1,2-diaminobenzene]
Details | LDH release cytotoxicity [%]
0.03162 µM | -0.924 ± 0.44
0.1 µM | -0.99 ± 0.3
0.3162278 µM | -1.38 ± 0.26
1 µM | -1.19 ± 0.55
3.16228 µM | -0.451 ± 0.11
10 µM | -0.557 ± 0.35
31.6228 µM | -0.208 ± 0.24
100 µM | -0.194 ± 0.22

Oc1ccc2ccccc2c1N=Nc1ccccc1 [C.I. Solvent Yellow 14]
Details | LDH release cytotoxicity [%]
0.031623 µM | -0.466 ± 2.1
0.1 µM | -3.7 ± 0.61
0.316228 µM | -3.44 ± 1.2
1 µM | -2.66 ± 0.24
3.16228 µM | -0.781 ± 0.44
10 µM | -0.446 ± 0.2
31.6228 µM | -2.17 ± 0.29
100 µM | -3.46 ± 0.19

COc1cc(-c2nc(NC(=O)c3cc4cc(C)cc(C)c4n3CC(=O)O)sc2CCC2CCCCC2)c(OC)cc1Cl
Details | LDH release cytotoxicity [%]
0.0267212 µM | 0.271 ± 0.48
0.0845 µM | -0.13 ± 0.2
0.267213 µM | -0.107 ± 0.19
0.845 µM | 0.419 ± 0.64
2.67212 µM | -0.184 ± 1
8.45 µM | 37.3 ± 4.1
26.7212 µM | 67.7 ± 1.7
84.5 µM | 78.3 ± 3.5

CC(C)Oc1cc(-n2nc(C(C)(C)C)oc2=O)c(Cl)cc1Cl [Oxadiazon]
Details | LDH release cytotoxicity [%]
0.03162 µM | -0.101 ± 1
0.1 µM | -0.564 ± 0.81
0.3162278 µM | -0.449 ± 1.2
1 µM | 0.329 ± 0.022
3.16228 µM | 0.576 ± 0.019
10 µM | 0.044 ± 0.0027
31.6228 µM | 0.449 ± 0.49
100 µM | 13.02 ± 0.12

CCc1c(C(=O)NN2CCCCC2)nn(-c2ccc(Cl)cc2Cl)c1-c1ccc(Br)cc1 [Surinabant]
Details | LDH release cytotoxicity [%]
0.03162 µM | -0.47 ± 0.5
0.1 µM | -0.954 ± 0.83
0.3162278 µM | -1.13 ± 1.6
1 µM | -1.44 ± 0.058
3.16228 µM | -0.402 ± 0.14
10 µM | 2.16 ± 0.28
31.6228 µM | 15.8 ± 2.2
100 µM | 77.6 ± 2.6

c1ccc(C[n+]2cccc3ccccc32)cc1 [1-Benzylquinolinium chloride]
Details | LDH release cytotoxicity [%]
0.0327296 µM | -1.88 ± 0.03
0.1035 µM | -1.6 ± 0.26
0.327296 µM | -1.47 ± 1.5
1.035 µM | -1.94 ± 0.25
3.27296 µM | -1.92 ± 0.61
10.35 µM | -0.779 ± 0.81
32.729574 µM | 0.264 ± 0.71
103.5 µM | -1.31 ± 1.1
